The target in this assay is T1, human M1 receptor (hCHRM1) (Homo sapiens, UniProt P11229).
T1 construct: expressed in transfected cells
T1 sequence (P11229 1-460): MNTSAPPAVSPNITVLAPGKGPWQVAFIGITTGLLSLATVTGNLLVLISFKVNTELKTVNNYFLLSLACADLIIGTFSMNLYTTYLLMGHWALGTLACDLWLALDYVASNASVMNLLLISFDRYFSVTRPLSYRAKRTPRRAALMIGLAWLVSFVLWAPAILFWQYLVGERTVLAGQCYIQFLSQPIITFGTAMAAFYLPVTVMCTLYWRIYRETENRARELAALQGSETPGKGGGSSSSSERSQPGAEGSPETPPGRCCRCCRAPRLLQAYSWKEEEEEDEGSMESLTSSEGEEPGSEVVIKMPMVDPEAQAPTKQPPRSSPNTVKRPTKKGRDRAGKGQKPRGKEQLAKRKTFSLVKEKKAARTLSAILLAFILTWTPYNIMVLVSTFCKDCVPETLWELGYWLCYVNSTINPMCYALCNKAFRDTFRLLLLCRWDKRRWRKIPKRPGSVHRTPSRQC
Description: Measurement of M1 receptor positive allosteric modulator (M1PAM) activity (calcium fluorescence, Fluo-4). The following applies: for EC50: inflection point of concentration-dependent curve, CHO-K1 cells stably expressing hCHRM1, in presence of acetylcholine at EC20 (final 0.8-1.0 nM), read-out: IP value; for activity (%) at 10 μM: test compound 10 μM with acetylcholine at EC20, 100% = 1 μM acetylcholine, 0% = DMSO, CHO-K1 cells expressing hCHRM1. The format is cell-based. The method, then: Measurement of M1 Receptor Positive Allosteric Modulator (M1PAM) Activity
The activity of a test compound in the presence of acetylcholine at EC20 concentration (final concentration 0.8-1.0 nM), which affords an action corresponding to about 20% of the maximum activity, was measured as PAM activity. The method is as follows. CHO-K1 cells stably expressing a human M1 receptor (hCHRM1) were plated on a 384-well black clear bottom plate (BD Falcon) at 5,000 cells/well, and cultured in an incubator at 37° C., 5% CO2 for 1 day. The medium in the cell plate was removed, and assay buffer A containing a calcium indicator (Recording medium (DOJINDO LABORATORIES), 0.1% BSA (Wako Pure Chemical Industries, Ltd.), 2.5 μg/mL Fluo-4 AM (DOJINDO LABORATORIES), 0.08% Pluronic F127 (DOJINDO LABORATORIES) and 1.25 mM probenecid (DOJINDO LABORATORIES) were added at 30 μL/well. The cells were left standing in the incubator at 37° C., 5% CO2 for 30 min, and further left standing at room temperature for 30 min. A test compound prepared by diluting with assay buffer B (HBSS (Invitrogen), 20 mM HEPES (Invitrogen), 0.1% BSA) containing 3.2-4.0 nM acetylcholine was added at 10 μL/well, and the fluorescence was measured by FDSS/pcell (Hamamatsu Photonics K.K.) for 1 min every for 1 second. With the definition that the amount of change in the fluorescence on addition of acetylcholine (final concentration 1 μM) is 100% and that on addition of DMSO instead of a test compound is 0%, the activity (%) of the test compound was calculated, and the inflection point in the concentration-dependent curve of the test compound was calculated as IP values.

Here are results for 21 molecules from US10548877B2, “Aromatic ring compound” (TAKEDA PHARMACEUTICAL COMPANY LIMITED, priority 2016, dated 2020).

On to `COc1c(C(=O)N[C@H]2CCCC[C@@H]2O)cc(Cc2ccc(-c3cn(C)nn3)cc2)c(C)c1C` (relative stereo) [Example 5, N-(trans-2-hydroxycyclohexyl)-2-methoxy-3,4-dimethyl-5-(4-(1-methyl-1H-1,2,3-triazol-4-yl)benzyl)benzamide], for which the EC50 came to 0.012 µM and the “activity (%) at 10 μM” value amounted to 105%.
As for `COc1c(C(=O)NCC2CCCO2)cc(Cc2ccc(-c3cn(C)nn3)cc2)c(C)c1C` (stereo not drawn) [Example 6, 2-methoxy-3,4-dimethyl-5-(4-(1-methyl-1H-1,2,3-triazol-4-yl)benzyl)-N-(tetrahydrofuran-2-ylmethyl)benzamide], the EC50 worked out at 0.023 µM and the “activity (%) at 10 μM” value was found to be 107%.
For the molecule `Cc1c(Cc2ccc(-n3cccn3)cc2)cc(C(=O)N[C@H]2COCC[C@@H]2O)c(F)c1C` [Example 12, 2-fluoro-N-((3S,4S)-4-hydroxytetrahydro-2H-pyran-3-yl)-3,4-dimethyl-5-(4-(1H-pyrazol-1-yl)benzyl)benzamide], the EC50 was 0.019 µM and the “activity (%) at 10 μM” value amounted to 103%.
For the molecule `COc1c(C(=O)N[C@H]2COCC[C@@H]2O)cc(Cc2ccc(-c3cn(C)nc3C)cc2)c(C)c1C` [Example 29, 1,5-anhydro-2,4-dideoxy-2-((5-(4-(1,3-dimethyl-1H-pyrazol-4-yl)benzyl)-2-methoxy-3,4-dimethylbenzoyl)amino)-L-threo-pentitol], the EC50 worked out at 0.048 µM and the “activity (%) at 10 μM” value was determined as 97%.
Consider `COc1c(C(=O)N[C@H]2COCC[C@@H]2O)cc(Cc2ccc(-c3ccn(C)n3)cc2)c(C)c1C` [Example 26, 1,5-anhydro-2,4-dideoxy-2-((2-methoxy-3,4-dimethyl-5-(4-(1-methyl-1H-pyrazol-3-yl)benzyl)benzoyl)amino)-L-threo-pentitol], for which the EC50 came to 0.031 µM and the “activity (%) at 10 μM” value worked out at 99%.
For the molecule `COc1c(C(=O)N[C@H]2COCC[C@@H]2O)cc(Cc2ccc(-c3cn(C)nn3)cc2)c(C)c1C` [Example 13, N-((3S,4S)-4-hydroxytetrahydro-2H-pyran-3-yl)-2-methoxy-3,4-dimethyl-5-(4-(1-methyl-1H-1,2,3-triazol-4-yl)benzyl)benzamide], the EC50 is 0.0094 µM and the “activity (%) at 10 μM” value was determined as 102%.
In the same order, the values of `COc1c(C(=O)N[C@H]2CCCC[C@@H]2O)cc(Cc2ccc(-c3ccn(C)n3)nc2)c(C)c1C` [Example 21, N-((1S,2S)-2-hydroxycyclohexyl)-2-methoxy-3,4-dimethyl-5-((6-(1-methyl-1H-pyrazol-3-yl)pyridin-3-yl)methyl)benzamide] are 0.01 µM and 96%.
As to `CCOc1c(C(=O)N[C@H]2CCCC[C@@H]2O)cc(Cc2ccc(-c3cn(C)nn3)cc2)c(C)c1C` [Example 15, 2-ethoxy-N-((1S,2S)-2-hydroxycyclohexyl)-3,4-dimethyl-5-(4-(1-methyl-1H-1,2,3-triazol-4-yl)benzyl)benzamide], the EC50 was 0.014 µM and the “activity (%) at 10 μM” value is given as 100%.
For `COc1c(C(=O)N[C@H]2COCC[C@@H]2O)cc(Cc2ccc(-c3ccn(C)n3)nc2)c(C)c1C` [Example 31, 1,5-anhydro-2,4-dideoxy-2-((2-methoxy-3,4-dimethyl-5-((6-(1-methyl-1H-pyrazol-3-yl)pyridin-3-yl)methyl)benzoyl)amino)-L-threo-pentitol] the same measures were 0.067 µM and 97%.
As to `COc1c(C(=O)N[C@H]2CCCC[C@@H]2O)cc(Cc2ccc(-n3ccnn3)cc2)c(C)c1C` [Example 14, N-((1S,2S)-2-hydroxycyclohexyl)-2-methoxy-3,4-dimethyl-5-(4-(1H-1,2,3-triazol-1-yl)benzyl)benzamide], the EC50 was found to be 0.0086 µM and the “activity (%) at 10 μM” value came out at 98%.
As to `Cc1c(Cc2ccc(-n3cccn3)cc2)cc(C(=O)N[C@H]2COCC[C@@H]2O)c(F)c1F` [Example 25, 1,5-anhydro-2,4-dideoxy-2-((2,3-difluoro-4-methyl-5-(4-(1H-pyrazol-1-yl)benzyl)benzoyl)amino)-L-threo-pentitol], the EC50 came out at 0.033 µM and the “activity (%) at 10 μM” value amounted to 97%.
For `Cc1c(Cc2ccc(-n3cccn3)nc2)cc(C(=O)N[C@H]2CCC[C@@H]2O)c(F)c1C` [Example 19, 2-fluoro-N-((1S,2S)-2-hydroxycyclopentyl)-3,4-dimethyl-5-((6-(1H-pyrazol-1-yl)pyridin-3-yl)methyl)benzamide], the EC50 was 0.084 µM and the “activity (%) at 10 μM” value is 93%.
Take `COc1c(C(=O)N[C@H]2CCC[C@@H]2O)cc(Cc2ccc(-n3cccn3)cc2)c(C)c1C` (relative stereo) [Example 2, N-(trans-2-hydroxycyclopentyl)-2-methoxy-3,4-dimethyl-5-(4-(1H-pyrazol-1-yl)benzyl)benzamide]: the EC50 turned out to be 0.095 µM and the “activity (%) at 10 μM” value was 96%.
Take `COc1c(C(=O)N[C@H]2CCC[C@@H]2O)cc(Cc2ccc(-c3ccn(C)n3)nc2)c(C)c1C` [Example 22, N-((1S,2S)-2-hydroxycyclopentyl)-2-methoxy-3,4-dimethyl-5-((6-(1-methyl-1H-pyrazol-3-yl)pyridin-3-yl)methyl)benzamide]: the EC50 is 0.055 µM and the “activity (%) at 10 μM” value turned out to be 95%.
As for `Cc1c(Cc2ccc(-c3cn(C)nn3)cc2)cc(C(=O)N[C@H]2CCCC[C@@H]2O)c(OC(C)C)c1C` [Example 16, N-((1S,2S)-2-hydroxycyclohexyl)-2-isopropoxy-3,4-dimethyl-5-(4-(1-methyl-1H-1,2,3-triazol-4-yl)benzyl)benzamide], the EC50 was 0.03 µM and the “activity (%) at 10 μM” value turned out to be 99%.
For the molecule `Cc1c(Cc2ccc(-c3cn(C)nn3)cc2)cc(C(=O)N[C@H]2CCCC[C@@H]2O)c(OC(F)F)c1C` [Example 18, 2-(difluoromethoxy)-N-((1S,2S)-2-hydroxycyclohexyl)-3,4-dimethyl-5-(4-(1-methyl-1H-1,2,3-triazol-4-yl)benzyl)benzamide], the EC50 was 0.027 µM and the “activity (%) at 10 μM” value is reported as 97%.
On to `COc1c(C(=O)N[C@@H]2CCCC[C@H]2O)cc(Cc2ccc(-c3cn(C)nn3)cc2)c(C)c1C` (single isomer, unassigned) [Example 11, N-(trans-2-hydroxycyclohexyl)-2-methoxy-3,4-dimethyl-5-(4-(1-methyl-1H-1,2,3-triazol-4-yl)benzyl)benzamide], for which the EC50 came out at 0.037 µM and the “activity (%) at 10 μM” value was 97%.
As to `Cc1c(Cc2ccc(-c3cn(C)nn3)cc2)cc(C(=O)N[C@H]2CCCC[C@@H]2O)c(OCC2CC2)c1C` [Example 17, 2-(cyclopropylmethoxy)-N-((1S,2S)-2-hydroxycyclohexyl)-3,4-dimethyl-5-(4-(1-methyl-1H-1,2,3-triazol-4-yl)benzyl)benzamide], the EC50 was 0.04 µM and the “activity (%) at 10 μM” value is 99%.
For `COc1c(C(=O)N[C@H]2COCC[C@@H]2O)cc(Cc2ccc(-n3cccn3)cc2)c(C)c1C` [Example 27, 1,5-anhydro-2,4-dideoxy-2-((2-methoxy-3,4-dimethyl-5-(4-(1H-pyrazol-1-yl)benzyl)benzoyl)amino)-L-threo-pentitol] the same measures were 0.039 µM and 100%.
For `COc1c(C(=O)N[C@H]2CCC[C@@H]2O)cc(Cc2ccc(-c3cn(C)nn3)cc2)c(C)c1C` (relative stereo) [Example 4, N-(trans-2-hydroxycyclopentyl)-2-methoxy-3,4-dimethyl-5-(4-(1-methyl-1H-1,2,3-triazol-4-yl)benzyl)benzamide] the same measures were 0.023 µM and 108%.
Take `Cc1c(Cc2ccc(-c3cscn3)cc2)cc(C(=O)N[C@H]2COCC[C@@H]2O)c(F)c1C` [Example 32, 1,5-anhydro-2,4-dideoxy-2-((2-fluoro-3,4-dimethyl-5-(4-(1,3-thiazol-4-yl)benzyl)benzoyl)amino)-L-threo-pentitol]: the EC50 was determined as 0.016 µM and the “activity (%) at 10 μM” value is 101%.
